Test [1] in a line: Liposome sedimentation assay. It is filed as binding. Particulars: 20 μM peptide, 30 min room temperature, 200,000 × g, SDS-PAGE. As for the experimental part:
To prepare the liposomes, phospholipids DMPC and Cardiolipin purchased from Avanti Polar Lipids (Alabaster, AL, USA) were dissolved in Chloroform:Methanol:Water in the ratio of (65:25:4) and (73:23:3) respectively, and dried under vacuum for 1 h. The lipid film was suspended in the assay buffer (20 mM HEPES, 150 mM NaCl, pH 7.0), vortexed, and sonicated for 15 min to form the liposomes. The assay was carried out by incubating 2 mM of the liposomes with 20 μM of NCR169C17–38 peptide and incubated for 30 min at room temperature, followed by ultracentrifugation at 200,000 × g for 15 min at 20 °C. After centrifugation, the supernatant (sn) and pellet (p) fractions were collected separately and were subjected to glycine-SDS-PAGE. The peptides were detected by Coomassie Brilliant Blue staining.
Prepared liposomes were incubated with NCR169C17–38, then separated by ultracentrifugation. Peptide remaining in the supernatant (sn) fraction indicated no binding, whereas peptide detected in the pellet (p) fraction indicated liposome association.

A further test deals with E. coli genomic DNA. Description: Gel retardation assay. It is filed as binding, Escherichia coli. The following applies: 100 ng E. coli genomic DNA, 10 or 100 µM peptide, 30 min at 37 °C. Here is the method:
(§1) The DNA- and RNA-binding abilities of NCR169C17–38, its parental peptide NCR169, and two shorter derivatives (NCR169_16–27 and NCR169_17–27) were initially evaluated using a gel retardation assay. In this setup, 100 ng of either E. coli genomic DNA or total RNA was incubated with 10 µM or 100 µM of each peptide for 30 min at 37 °C. Reaction mixtures, along with untreated controls, were then subjected to agarose gel electrophoresis, and the resulting nucleic acid migration patterns were examined for changes indicative of peptide binding. The interaction of NCR169C17–38 with circular plasmid DNA (pDEST-GBKT7) was also characterized using peptide concentrations ranging from 50 µM to 0.8 µM, prepared by 2-fold serial dilution. Experiments were done in three biological replicates.
(§2) To explore whether the NCR169C17–38 peptide has secondary intracellular targets of the bacterial cells beyond the primary membrane disruption, we tested its possible interaction with nucleic acids in gel retardation assays. A pilot experiment indicated strong DNA-binding capacity, prompting us to include the parental NCR169 peptide and the shorter derivatives NCR169_16–27 and NCR169_17–27 for comparison (Fig. 3.). […] Similar results were obtained with total E. coli RNA (Fig. 3.B). […]

Another test has as its system E. coli total RNA. Description: Gel retardation assay. Format: binding, Escherichia coli. The following applies: 100 ng E. coli total RNA, 10 or 100 µM peptide, 30 min at 37 °C. As for the experimental part:
as §1, §2

Another test deals with Acinetobacter baumannii. Kind of test: microbe, parasite or virus in culture. It is filed as cell-based. Here is the method:
For the biofilm inhibition assay the antimicrobial activity test was done in 1/10 MHB using A. baumannii treated with the respective dilutions of NCR169C17–38, meropenem or polymixin B for 24 h. After taking the 5 μl samples at the end of the treatment and placed on LB agar to detect bacterial growth, the rest of the grown bacterial suspensions were discarded from the plate and the remaining biofilm on the walls of the plate was then washed three times with sterile water and stained using 1 % Crystal Violet (CV) for 15 min to visualize the produced biofilm. The non-adherent CV dye was then removed by washing with water three times. The plate was left for complete drying, then the biofilm-bound CV dye was dissolved in 200 µl of 30 % acetic-acid with shaking over 15 min. The absorbance was measured at OD550 using a HIDEX Plate Reader (Hidex Sense Microplate Reader with Plate Reader Software version 5064, Hidex, Finland). All measurements were repeated three times.
We examined the capacity of NCR169C17–38 to inhibit biofilm formation by Acinetobacter baumannii, a pathogen well known for its robust biofilm production and high level of antibiotic resistance. […] Additionally, at the end of the experiment we determined the quantity of the biofilm and thereby evaluated their ability to inhibit biofilm formation during culturing the bacteria in the presence of different concentrations of the agents (Fig. 1.A). We tested concentrations of NCR169C17–38 ranging from 25 μM to 0.4 μM, meropenem from 100 μM to 1.6 μM and polymyxin B from 3.1 μM to 0.05 μM.

Converted amounts (≈) assume the structure as drawn. Residues, ends and D or L forms follow the SMILES beside them.

For `CC[C@H](C)[C@H](NC(=O)[C@H](CCCCN)NC(=O)[C@H](Cc1ccccc1)NC(=O)[C@H](CC(C)C)NC(=O)[C@@H]1CCCN1C(=O)[C@H](CCCCN)NC(=O)[C@H](CCCCN)NC(=O)[C@H](CO)NC(=O)[C@@H](N)CCCCN)C(=O)N[C@@H](Cc1c[nH]c2ccccc12)C(=O)N[C@@H](CCCCN)C(=O)N[C@@H](CS)C(=O)N[C@H](C(=O)N[C@@H](CCC(=O)O)C(=O)N[C@@H](CC(N)=O)C(=O)N[C@H](C(=O)N[C@@H](CS)C(=O)N[C@H](C(=O)N[C@@H](CC(C)C)C(=O)N[C@@H](Cc1c[nH]c2ccccc12)C(=O)N[C@@H](Cc1ccc(O)cc1)C(=O)N[C@@H](CCCCN)C(N)=O)C(C)C)C(C)C)C(C)C` [NCR169C17–38] (H-KSKKPLFKIWKCVENVCVLWYK-NH2; N-terminus assumed), the liposome binding entry in test [1] (2 mM Cardiolipin liposomes) is reported as “bound strongly”; in test [1] (2 mM DMPC liposomes) it was “no binding”. The “DNA binding, gel retardation” value with E. coli genomic DNA was “completely preventing DNA migration from the well at the lower concentration”. The “RNA binding, gel retardation” value with E. coli total RNA is recorded as “completely blocked RNA migration at high concentrations”. Also, the MBC in the test on Acinetobacter baumannii (24 h, read-out: MBC, Inhibition test after 24 h) amounted to 6.3 µM (≈ 17.3 µg/mL). The “inhibition of biofilm formation (Crystal Violet, OD550)” value in the test with Acinetobacter baumannii (A. baumannii, 24 h treatment, NCR169C17–38 25-0.4 μM, meropenem 100-1.6 μM, polymyxin B 3.1-0.05 μM) is recorded as “remaining effective even at lower doses”.

For the origin of these results see publication PMC12811501, “A plant-derived antimicrobial peptide with multiple mechanisms of action exhibiting antibacterial and antibiofilm activities comparable to or superior to polymyxin B” (Current Research in Microbial Sciences, 2025).
